From patent US10647671B2, “Promysalin analogues and methods of use thereof” (Temple University—Of The Commonwealth System of Higher …, priority 2016, dated 2020)
Where two headings read alike, the source gives them in different places. One block for each compound: values may come before it.

How the values were obtained:
[1] = tested on: P. aeruginosa strains PAO1 and PA14; experiment: Inhibitory activity against P. aeruginosa, strain not separated in text; format: cell-based, Pseudomonas aeruginosa; conditions: for inhibitory activity against P. aeruginosa, in words (SAR): compared with promysalin; for IC50: Pseudomonas aeruginosa, PAO1 and PA14, read-out: IC50 / inactive up to concentration
Protocol: (§1) P. aeruginosa PA01, and PA14 were gifts from Prof. George O'Toole (Dartmouth Medical School). Bacterial cultures were grown from freezer stocks overnight (16-24 hr) with shaking at 37° C. in Tryptic Soy Broth (TSB) media (10 mL). Growth curves were obtained for PA01 and PA14 to determine the OD of each strain in exponential growth; OD readings at 595 nm were taken every 10 minutes for 6 hours in a plate reader at 37° C. with shaking and repeated six times. (see FIGS. 6A and 6B)
(§2) Compounds were serially diluted in sterile DI water from a stock solution (1 mM in 10% DMSO/90% H2O) to yield twenty-four test concentrations. Overnight cultures were diluted 1:100 in 5 mL fresh media and grown with shaking at 37° C. to an OD of 0.32 (see growth curves). Bacteria were diluted to a concentration of 0.004 using the following equation: (x μL O/N)(OD reading)=(0.004)(volume needed) and 100 μL was inoculated into each well of a flat-bottom 96-well plate (Corning 3370) containing 100 μL of compound solution. Plates were incubated statically at 37° C. for 24 hours, upon which time the OD at 595 nm was measured using a plate reader. IC50 values were calculated by fitting the OD readings vs. concentration with a 4 parameter logistic model. Controls were prepared by serially diluting a 10% DMSO/90% H2O the same as the compound stock solution. Compounds were tested in triplicate from separate O/N cultures and results averaged.
With a library of sixteen analogs in hand, all of the compounds were evaluated for inhibitory activity against P. aeruginosa strains PAO1 and PA14. […] The inhibition data supported our initial hypothesis that the conformation of promysalin is exquisitely linked to its inhibition of PA. Of our modifications to the proline structure, fluorination (9)—being the smallest steric perturbation, was the only compound with equipotency to that of promysalin.

[2] = tested on: P. aeruginosa PA14; experiment: IC50 assay (OD595, 24 h) against PA14; format: cell-based, Pseudomonas aeruginosa; conditions: for IC50: Pseudomonas aeruginosa
Protocol: as §1, §2
Compounds were serially diluted in sterile DI water from a stock solution (10% DMSO/H2O) yielding 24 test concentrations. Bacteria were diluted to a final concentration of 0.004 from regrown overnight culture according to the following equation: (xμL bacterial culture)(OD reading)=(0.004)(total volume needed) and 100 μL was inoculated into each well of a flat-bottom 96-well plate (Corning 3370) containing 100 μL of compound solution. Plates were incubated statically at 37° C. for 24 hours upon which time OD at 595 nm was measured using a plate reader (Spectra Max 190). IC50 values were calculated using OD values and concentrations with a 4-parameter logistic model. Control experiments used a 10% DMSO/H2O stock serially diluted to the same 24 concentrations. Compounds were tested in triplicate from three independent overnight cultures.

[3] = tested on: P. aeruginosa PA01; experiment: IC50 assay (OD595, 24 h) against PA01; format: cell-based; conditions: Pseudomonas aeruginosa
Protocol: P. aeruginosa PA01, and PA14 were gifts from Prof. George O'Toole (Dartmouth Medical School). Bacterial cultures were grown from freezer stocks overnight (16-24 hr) with shaking at 37° C. in Tryptic Soy Broth (TSB) media (10 mL). Growth curves were obtained for PA01 and PA14 to determine the OD of each strain in exponential growth; OD readings at 595 nm were taken every 10 minutes for 6 hours in a plate reader at 37° C. with shaking and repeated six times. (see FIGS. 6A and 6B) Compounds were serially diluted in sterile DI water from a stock solution (1 mM in 10% DMSO/90% H2O) to yield twenty-four test concentrations. Overnight cultures were diluted 1:100 in 5 mL fresh media and grown with shaking at 37° C. to an OD of 0.32 (see growth curves). Bacteria were diluted to a concentration of 0.004 using the following equation: (x μL O/N)(OD reading)=(0.004)(volume needed) and 100 μL was inoculated into each well of a flat-bottom 96-well plate (Corning 3370) containing 100 μL of compound solution. Plates were incubated statically at 37° C. for 24 hours, upon which time the OD at 595 nm was measured using a plate reader. IC50 values were calculated by fitting the OD readings vs. concentration with a 4 parameter logistic model. Controls were prepared by serially diluting a 10% DMSO/90% H2O the same as the compound stock solution. Compounds were tested in triplicate from separate O/N cultures and results averaged.

[4] = average of EXPT 1-3, read-out: IC50 PA01 AVG
[5] = averages of three independent experiments, read-out: IC50 PA01
[6] = single trial 1, read-out: IC50 PA01 EXPT 1
[7] = single trial 2, read-out: IC50 PA01 EXPT 2
[8] = single trial 3, read-out: IC50 PA01 EXPT 3
[9] = average of EXPT 1-3, read-out: IC50 PA14 AVG
[10] = averages of three independent experiments, read-out: IC50 PA14
[11] = single trial 1, read-out: IC50 PA14 EXPT 1
[12] = single trial 2, read-out: IC50 PA14 EXPT 2
[13] = single trial 3, read-out: IC50 PA14 EXPT 3

Structure (SMILES): CCCCCC[C@H](CCCCC[C@@H](O)C(N)=O)OC(=O)[C@@H]1CC[C@@H]2Oc3ccccc3C(=O)N21 (single isomer, unassigned) [2a]
- inhibitory activity against P. aeruginosa, in words (SAR) [1]: no biological activity

Structure (SMILES): CCCCCC[C@H](CCCCC[C@@H](O)C(N)=O)OC(=O)[C@@H]1CC[C@H]2Oc3ccccc3C(=O)N21 (single isomer, unassigned) [2b]
- inhibitory activity against P. aeruginosa, in words (SAR) [1]: no biological activity

- IC50 ([2]; read-out: IC50 in PA14): 1.7 µM
Structure (SMILES): C#CCCC1(CCNC(=O)[C@H](O)CCCCC[C@@H](CCCCCC)OC(=O)[C@@H]2CC=CN2C(=O)c2ccccc2O)N=N1 [(−)-2, (7R,13R)-14-((2-(3-(but-3-yn-1-yl)-3H-diazirin-3-yl)ethyl)amino)-13-hydroxy-14-oxotetradecan-7-yl (S)-1-(2-hydroxybenzoyl)-2,3-dihydro-1H-pyrrole-2-carboxylate]
- less active than promysalin [1]: ~10 ×

- IC50 ([2]; preliminary screening for probe design, read-out: IC50 in PA14): 0.218 µM
Structure (SMILES): C#CCNC(=O)[C@H](O)CCCCC[C@@H](CCCCCC)OC(=O)[C@@H]1CC=CN1C(=O)c1ccccc1O [(−)-S4, (7R,13R)-13-hydroxy-14-oxo-14-(prop-2-yn-1-ylamino)tetradecan-7-yl (S)-1-(2-hydroxybenzoyl)-2,3-dihydro-1H-pyrrole-2-carboxylate]
- activity relative to the natural product [2]: three-fold less active

Structure (SMILES): C#CCCC1(CCNC(=O)[C@H](O)CCCCC[C@@H](CCCCCC)OC(=O)[C@@H]2CC=CN2C(=O)c2ccccc2)N=N1 [(−)-S12, (7R,13R)-14-((2-(3-(but-3-yn-1-yl)-3H-diazirin-3-yl)ethyl)amino)-13-hydroxy-14-oxotetradecan-7-yl (S)-1-benzoyl-2,3-dihydro-1H-pyrrole-2-carboxylate]
- inhibitory activity against P. aeruginosa, in words (SAR) [1]: inactive

- IC50 [1]: > 250 µM
Structure (SMILES): CCCCCC[C@@H](O)CCCCC[C@@H](O)C(N)=O [compound 4, (2R,8R)-2,8-dihydroxytetradecanamide]

- IC50 [1]: > 250 µM
Structure (SMILES): COC(=O)[C@@H]1CC=CN1C(=O)c1ccccc1O [compound 5, Methyl (2S)-1-(2-hydroxybenzoyl)-2,3-dihydro-1H-pyrrole-2-carboxylate]

- IC50 [3, 4]: 111 µM
- IC50 [3, 5]: 111 µM
- IC50 [3, 6]: 113 µM
- IC50 [3, 7]: 98.9 µM
- IC50 [3, 8]: 121 µM
- IC50 [2, 9]: 28.3 µM
- IC50 [2, 10]: 28 µM
- IC50 [2, 11]: 24.3 µM
- IC50 [2, 12]: 27.1 µM
- IC50 [2, 13]: 33.7 µM
Structure (SMILES): CCCCCC[C@H](CCCCC[C@@H](O)C(N)=O)OC(=O)[C@@H]1CCCN1C(=O)c1ccccc1O [compound 6, (1R,7R)-1-carbamoyl-1-hydroxytridecan-7-yl (2S)-1-(2-hydroxybenzoyl)pyrrolidine-2-carboxylate]
- inhibitory activity against P. aeruginosa, in words (SAR) [1]: modest activity

Structure (SMILES): CCCCCC[C@H](CCCCC[C@@H](O)C(N)=O)OC(=O)[C@@H]1CCCCN1C(=O)c1ccccc1O [compound 7, (1R,7R)-1-carbamoyl-1-hydroxytridecan-7-yl (2S)-1-(2-hydroxybenzoyl)piperidine-2-carboxylate]
- inhibitory activity against P. aeruginosa, in words (SAR) [1]: inactive

Structure (SMILES): CCCCCC[C@H](CCCCC[C@@H](O)C(N)=O)OC(=O)[C@@H]1C[C@@H](O)CN1C(=O)c1ccccc1O [compound 8, (1R,7R)-1-carbamoyl-1-hydroxytridecan-7-yl (2S,4R)-4-hydroxy-1-(2-hydroxybenzoyl)pyrrolidine-2-carboxylate]
- inhibitory activity against P. aeruginosa, in words (SAR) [1]: inactive

- IC50 [3, 4]: 7.7 µM
- IC50 [3, 5]: 7.7 µM
- IC50 [3, 6]: 8.11 µM
- IC50 [3, 7]: 8.57 µM
- IC50 [3, 8]: 6.41 µM
- IC50 [2, 9]: 0.019 µM
- IC50 [2, 10]: 0.019 µM
- IC50 [2, 11]: 0.04 µM
- IC50 [2, 12]: 0.01 µM
- IC50 [2, 13]: 0.01 µM
Structure (SMILES): CCCCCC[C@H](CCCCC[C@@H](O)C(N)=O)OC(=O)[C@@H]1CC(F)=CN1C(=O)c1ccccc1O [compound 9, (7R,13R)-14-amino-13-hydroxy-14-oxotetradecan-7-yl (S)-4-fluoro-1-(2-hydroxybenzoyl)-2,3-dihydro-1H-pyrrole-2-carboxylate]
- inhibitory activity against P. aeruginosa, in words (SAR) [1]: equipotency

- IC50 [3, 4]: 31.9 µM
- IC50 [3, 5]: 32 µM
- IC50 [3, 6]: 32.3 µM
- IC50 [3, 7]: 32.5 µM
- IC50 [3, 8]: 31.1 µM
- IC50 [2, 9]: 11.4 µM
- IC50 [2, 10]: 12 µM
- IC50 [2, 11]: 10.8 µM
- IC50 [2, 12]: 11.2 µM
- IC50 [2, 13]: 12.2 µM
Structure (SMILES): CCCCCC[C@H](CCCCC[C@@H](O)C(N)=O)OC(=O)[C@@H]1CC(C)=CN1C(=O)c1ccccc1O [compound 10, (7R,13R)-14-amino-13-hydroxy-14-oxotetradecan-7-yl (S)-1-(2-hydroxybenzoyl)-4-methyl-2,3-dihydro-1H-pyrrole-2-carboxylate]
- inhibitory activity against P. aeruginosa, in words (SAR) [1]: slightly tolerated

Structure (SMILES): CCCCCC[C@H](CCCCC[C@@H](O)C(N)=O)OC(=O)[C@@H]1CC=CN1C(=O)c1cccc(O)c1 [compound 12, (7R,13R)-14-amino-13-hydroxy-14-oxotetradecan-7-yl (S)-1-(3-hydroxybenzoyl)-2,3-dihydro-1H-pyrrole-2-carboxylate]
- inhibitory activity against P. aeruginosa, in words (SAR) [1]: largely unforgiving

Structure (SMILES): CCCCCC[C@H](CCCCC[C@@H](O)C(N)=O)OC(=O)[C@@H]1CC=CN1C(=O)c1ccc(O)cc1 [compound 13, (1R,7R)-1-carbamoyl-1-hydroxytridecan-7-yl (2S)-1-(4-hydroxybenzoyl)-2,3-dihydro-1H-pyrrole-2-carboxylate]
- inhibitory activity against P. aeruginosa, in words (SAR) [1]: largely unforgiving

Structure (SMILES): CCCCCC[C@H](CCCCC[C@@H](O)C(N)=O)OC(=O)[C@@H]1CC=CN1C(=O)c1ccccc1 [compound 14, (1R,7R)-1-carbamoyl-1-hydroxytridecan-7-yl (2S)-1-benzoyl-2,3-dihydro-1H-pyrrole-2-carboxylate]
- inhibitory activity against P. aeruginosa, in words (SAR) [1]: largely unforgiving

Structure (SMILES): CCCCCC[C@H](CCCCC[C@@H](O)C(N)=O)OC(=O)[C@@H]1CC=CN1C(=O)c1c(O)cccc1OC [compound 15, (7R,13R)-14-amino-13-hydroxy-14-oxotetradecan-7-yl (S)-1-(2-hydroxy-6-methoxybenzoyl)-2,3-dihydro-1H-pyrrole-2-carboxylate]
- inhibitory activity against P. aeruginosa, in words (SAR) [1]: not tolerated

Structure (SMILES): CCCCCC[C@H](CCCCC[C@@H](O)C(N)=O)OC(=O)[C@@H]1CC=CN1C(=O)c1cc(OC)c(OC)c(OC)c1 [compound 16, (1R,7R)-1-carbamoyl-1-hydroxytridecan-7-yl (2S)-1-(3,4,5-trimethoxybenzoyl)-2,3-dihydro-1H-pyrrole-2-carboxylate]
- inhibitory activity against P. aeruginosa, in words (SAR) [1]: not tolerated

Structure (SMILES): CCCCCC[C@H](CCCCC[C@@H](O)C(N)=O)OC(=O)[C@@H]1CC=CN1C(=O)c1ccccc1[N+](=O)[O-] [compound 17, (7R,13R)-14-amino-13-hydroxy-14-oxotetradecan-7-yl (S)-1-(2-nitrobenzoyl)-2,3-dihydro-1H-pyrrole-2-carboxylate]
- inhibitory activity against P. aeruginosa, in words (SAR) [1]: largely unforgiving
